Measured values reported in PubChem BioAssay (NCI).
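Method: 48-hour compound exposure of cells in 96-well plates, five concentrations, linear interpolation of endpoints. GI50: concentration for 50% inhibition of growth. TGI marks complete inhibition of growth.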

Experiments:
Assay in all cases: DTP human tumour cell line panel, 48 h
[1] = system: ACHN renal
[2] = system: CAKI-1 renal
[3] = system: CCRF-CEM leukemia
[4] = system: HCT-15 colon
[5] = system: NCI-H226 lung
[6] = system: RPMI-8226 leukemia
[7] = system: SNB-19 CNS
[8] = system: UO-31 renal
[9] = system: BT-549 breast

| SMILES | TGI [1] [µM] | TGI [2] [µM] | TGI [3] [µM] | TGI [4] [µM] | TGI [5] [µM] | TGI [6] [µM] | TGI [7] [µM] | TGI [8] [µM] | GI50 [1] [µM] | GI50 [9] [µM] | TGI [9] [µM] | GI50 [2] [µM] | GI50 [3] [µM] | GI50 [4] [µM] | GI50 [5] [µM] | GI50 [7] [µM] | GI50 [8] [µM] |
| --- | --- | --- | --- | --- | --- | --- | --- | --- | --- | --- | --- | --- | --- | --- | --- | --- | --- |
| Cc1cc(N(CCC#N)CCC#N)ccc1/C=C1\N=C(c2cc([N+](=O)[O-])ccc2Cl)N(c2cccc(Cl)c2)C1=O | > 100 | > 100 | > 100 | > 100 | > 100 | > 100 | > 100 | > 100 |  |  |  |  |  |  |  |  |  |
| O/N=C/c1ncccc1C1OCCO1 | > 100 | > 100 | > 100 | > 100 | > 100 |  | > 100 | > 100 |  |  |  |  |  |  |  |  |  |
| C[C@@H]1OC(=O)N2CCCC(=C3SCCCS3)C12 (some centres undefined) | > 100 |  | > 100 | > 100 | > 100 | > 100 | > 100 | > 100 |  |  |  |  |  |  |  |  |  |
| CCCC(=O)OCC1OC(n2cnc3c(=S)nc[nH]c32)C(OC(=O)CCC)C1OC(=O)CCC (centres undefined) | > 100 | 23.5 | 17.4 | > 100 | > 100 |  | > 100 | > 100 | 6.15 | 14.3 | > 100 | 2.51 | 1.79 | 7.22 | 5.77 | 46.4 | 7.53 |
| Cc1cc(-c2cnn3c(NCC4CC(C)(O)C4)cc(Oc4cccnc4)nc23)ccc1C(=O)NC1CC1 (centres undefined) | > 100 | > 100 | > 100 | > 100 | > 100 |  | > 100 | > 100 | 1.29 | > 100 | > 100 | 1.38 | 0.259 | 0.706 | > 100 | > 60.7 | 2.02 |
| O=C1c2ccccc2C(=O)N1CCc1ncc[nH]1 | > 100 | > 100 | > 100 | > 100 |  | > 100 | > 100 | > 100 |  |  |  |  |  |  |  |  |  |
| C/C(O)=C(\N=O)C(=O)Nc1ccc(Cl)cc1Cl | > 100 | > 100 | > 100 | > 100 | > 100 | > 100 | > 100 | > 100 |  |  |  |  |  |  |  |  |  |
| Cc1c(C(=O)C/C(=N/NC(=O)C[N+](C)(C)C)C(=O)Nc2ccc(Cl)cc2)[n+](=O)c2ccccc2n1O | > 100 | > 100 | > 100 | > 100 | > 100 | > 100 | > 100 | > 100 |  |  |  |  |  |  |  |  |  |
| O=C(CC1(O)C(=O)Nc2ccccc21)c1ccncc1 (centres undefined) | > 100 | > 100 | > 100 | > 100 | > 100 | > 100 | > 100 | > 100 |  |  |  |  |  |  |  |  |  |
| CCOC(=O)/C(C#N)=C/c1[nH]c(C(=O)OCc2ccccc2)c(C)c1C | > 100 | > 100 | > 100 | > 100 |  | > 100 | > 100 | > 100 |  |  |  |  |  |  |  |  |  |
| COC1(OC)CC2OC1C1N=NN(C(=O)OC(C)(C)C)C21 (centres undefined) | > 100 | > 100 | > 100 | > 100 | > 100 | > 100 |  | > 100 |  |  |  |  |  |  |  |  |  |
